pIC50: −log10 of the molar value. Counter-ions that a name gives are not always drawn. Like-named read-outs stand apart in the source and are kept apart here.
Tests used:
[1] = biological target: T1, cyclooxygenase-2 (human osteosarcoma 143 cells) (Homo sapiens, UniProt P35354); assay: Inhibition of cyclooxygenase-2: PGE2 production in human osteosarcoma 143 cells, whole cell assay; assay type: cell-based
T1 construct: human osteosarcoma 143 cells (which specifically express cyclooxygenase-2); endogenous in cells; host or cells: human osteosarcoma 143 cells
T1 sequence (P35354 18-604): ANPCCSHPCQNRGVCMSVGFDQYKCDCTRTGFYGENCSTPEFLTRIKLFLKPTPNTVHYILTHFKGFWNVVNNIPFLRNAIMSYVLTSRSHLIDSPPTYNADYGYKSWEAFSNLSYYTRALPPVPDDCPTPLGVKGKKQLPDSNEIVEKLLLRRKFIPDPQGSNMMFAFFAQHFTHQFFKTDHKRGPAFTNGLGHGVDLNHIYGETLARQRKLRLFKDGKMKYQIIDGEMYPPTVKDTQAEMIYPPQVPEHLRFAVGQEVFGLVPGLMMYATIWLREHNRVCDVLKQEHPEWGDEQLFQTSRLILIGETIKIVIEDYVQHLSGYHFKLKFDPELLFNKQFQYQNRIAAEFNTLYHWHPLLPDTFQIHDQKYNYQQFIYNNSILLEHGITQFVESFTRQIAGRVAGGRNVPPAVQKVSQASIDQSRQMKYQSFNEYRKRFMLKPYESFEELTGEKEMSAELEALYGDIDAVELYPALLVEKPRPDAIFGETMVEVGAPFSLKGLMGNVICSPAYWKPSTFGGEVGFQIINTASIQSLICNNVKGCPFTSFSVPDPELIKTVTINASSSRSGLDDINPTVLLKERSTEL

[2] = test system: rat paw edema; assay: Rat Paw Edema Assay (carrageenan), edema inhibition; assay type: in vivo, Male Sprague-Dawley rats; settings: po 1 hr before carrageenan, paw volume at 3 hr
Experimental: Rat Paw Edema Assay-Protocol
Male Sprague-Dawley rats (150-200 g) are fasted overnight and are given po either vehicle (1% methocel or 5% Tween 80) or a test compound. One hr later, a line is drawn using a permanent marker at the level above the ankle in one hind paw to define the area of the paw to be monitored. The paw volume (V0) is measured using a plethysmometer (Ugo-Basile, Italy) based on the principle of water displacement. The animals are then injected subplantarly with […] of 1% carrageenan solution in saline (FMC Corp, Maine) into the paw using an insulin syringe with a 25-gauge needle (i.e., […] carrageenan per paw). Three hr later, the paw volume (V3) is measured and the increases in paw volume (V3 -V0) are calculated. The animals are sacrificed by CO2 asphyxiation and the absence or presence of stomach lesions scored. Data is compared with the vehicle-control values and percent inhibition calculated. All treatment groups are coded to eliminate observer bias.

[3] = biological target: T2, cyclooxygenase-1 (human U-937 cells) (Homo sapiens, UniProt P23219); assay: Inhibition of cyclooxygenase-1: PGE2 production in human U-937 cells, whole cell assay; assay type: cell-based; settings: PGE2 synthesis in response to arachidonic acid, read-out: Cox-1 IC50
T2 construct: human U-937 cells (which specifically express cyclooxygenase-1); endogenous in cells; host or cells: human U-937 cells
T2 sequence (P23219 24-599): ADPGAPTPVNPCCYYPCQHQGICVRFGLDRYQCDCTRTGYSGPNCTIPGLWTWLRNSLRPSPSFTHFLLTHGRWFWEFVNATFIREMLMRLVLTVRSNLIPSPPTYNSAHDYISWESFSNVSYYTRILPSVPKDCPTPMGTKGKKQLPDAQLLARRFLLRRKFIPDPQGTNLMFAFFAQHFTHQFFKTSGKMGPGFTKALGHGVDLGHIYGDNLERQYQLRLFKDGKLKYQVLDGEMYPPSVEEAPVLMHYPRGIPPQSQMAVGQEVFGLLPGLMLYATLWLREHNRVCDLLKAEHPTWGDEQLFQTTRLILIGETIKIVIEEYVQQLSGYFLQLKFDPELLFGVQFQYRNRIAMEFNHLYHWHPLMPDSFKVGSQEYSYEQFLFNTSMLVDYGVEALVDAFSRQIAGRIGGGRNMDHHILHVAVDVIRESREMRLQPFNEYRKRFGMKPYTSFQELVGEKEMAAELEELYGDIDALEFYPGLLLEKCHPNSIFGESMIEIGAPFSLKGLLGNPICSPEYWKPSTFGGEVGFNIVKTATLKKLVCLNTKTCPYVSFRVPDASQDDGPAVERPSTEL

[4] = human osteosarcoma 143 cells, whole cell, PGE2 synthesis in response to arachidonic acid, read-out: Cox-2 IC50

Question: With `COc1ccc2c(c1)c(CCCC(=O)O)c(C)n2Cc1ccc(Br)cc1` [Example 4, 4-(1-(4-Bromobenzyl)-5-methoxy-2-methyl-1H-indol-3-yl)butanoic acid] as the compound, how does the pIC50 [1, 4] read?
Answer: 8.22

Question: What about the ED30 [2] of the same compound?
Answer: 1.2 mg/kg

Question: And the pIC50 [3]?
Answer: < 5.00

Question: With `Cc1c(CCCC(=O)O)c2cc(Br)ccc2n1Cc1ccc(Br)cc1` [Example 24, 4-[5-Bromo-1-(4-bromobenzyl)-2-methyl-1H-indol-3-yl]butanoic acid] as the compound, how does the pIC50 [1, 4] read?
Answer: 8.22

Question: And the ED30 [2]?
Answer: ~3 mg/kg

Question: And the pIC50 [3]?
Answer: < 4.30

Question: `COc1ccc2c(c1)c(CC1(CC(=O)O)CC1)c(C)n2Cc1ccc(Cl)cc1` [Example 25, 4-[1-(4-Chlorobenzyl)-5-methoxy-2-methyl-1H-indol-3-yl]-3-(ethane-1,2-diyl)butanoic acid] was tested. Which pIC50 [1, 4] did it give?
Answer: 8.05

Question: And the ED30 [2]?
Answer: > 3 mg/kg

Question: What about the pIC50 [3] of the same compound?
Answer: < 4.60

Question: With `Cc1c(CC(C)CC(=O)O)c2cc(Cl)ccc2n1Cc1ccc(Br)cc1` (racemic) [Example 34, 4-[1-(4-Bromobenzyl)-5-chloro-2-methyl-1 H-indol-3-yl]-3-methyl-butanoic acid] as the compound, how does the pIC50 [1, 4] read?
Answer: 8.30

Question: And the ED30 [2]?
Answer: 0.51 mg/kg

Question: What about the pIC50 [3] of the same compound?
Answer: < 5.00

Question: Which ED30 [2] does the source give for `COc1ccc2c(c1)c(CC(=O)O)c(C)n2C(=O)c1ccc(Cl)cc1` [Indomethacin, reference compound] here?
Answer: 0.9 mg/kg

Question: With `COc1ccc2c(c1)c(C[C@@H](C)CC(=O)O)c(C)n2Cc1ccc(Br)cc1` [Example 8, (3R) 4-(1-(4-Bromobenzyl)-5-methoxy-2-methyl-1H-indol-3-yl)-3-methylbutanoic ac id] as the compound, how does the ED30 [2] read?
Answer: 0.6 mg/kg

Question: What about the pIC50 [3] of the same compound?
Answer: < 5.00

Question: How did the pIC50 [1] turn out when `COc1ccc2c(c1)c(CC1(CC(=O)O)CC1)c(C)n2Cc1ccc(Br)cc1` [Example 2, [4-(1-(4-Bromobenzyl) -5-methoxy-2-methyl-1 H-indol-3-yl) -3-(ethane-1,2-diyl)]butanoic acid, sodium salt] was run?
Answer: 7.80

Question: And the ED30 [2]?
Answer: 0.54 mg/kg

Question: What about the pIC50 [3] of the same compound?
Answer: < 4.00

Question: How did the ED30 [2] turn out when `COc1ccc2c(c1)c(C(C)C(=O)O)c(C)n2Cc1ccc(Cl)cc1` (stereo not shown) [MK-555, a-(1-p-chlorobenzyl-2-methyl-5-methoxy-3-indolyl)propionic acid, reference compound] was run?
Answer: 3 mg/kg

From US5639780A, “N-benzyl indol-3-yl butanoic acid derivatives as cyclooxygenase inhibitors” (priority 1995, dated 1997)
